Assay results as given in patent publication US9481654B2, “Compositions and methods for inhibition of the JAK pathway” (Rigel Pharmaceuticals, Inc., priority 2006, dated 2016).

Legend:
Assay type in all cases: cell-based
[1] = system: IL-4 stimulated CD23 upregulation in human Ramos B cells (JAK-1/JAK-3, Stat-6); assay: Assay for Ramos B-Cell Line Stimulated with IL-4 (CD23 upregulation, FACS); conditions: Table III Example 3
How it was run: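 Flow cytometry of CD23 staining after 20-24 h IL-4 stimulation (50 units/mL final) of human Ramos B cells in RPMI with 5% serum. Cells, 5×10^4 per point, received compound or DMSO vehicle for 1 h at 37° C prior to stimulation.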

[2] = system: primary human T-cells (IL-2 induced proliferation, JAK-1/JAK-3, Stat-5); assay: Primary Human T-Cell Proliferation Assay Stimulated with IL-2 (CellTiter-Glo); conditions: Table III Example 4
How it was run: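 Read-out is intracellular ATP luminescence (CellTiter-Glo) after 72 h at 37 °C of IL-2-driven growth. Cells, pre-stimulated via TCR and CD28 then washed free of IL-2, were resuspended in Yssel's medium, given 80 U/mL IL-2 in the cell suspension plus duplicate compound; unstimulated wells lacked IL-2.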

[3] = system: IFNγ induced ICAM-1 (CD54) up-regulation in U937 human monocytic cells (JAK/Stat pathway); assay: U937 IFNγ ICAM1 FACS Assay; conditions: Table III Example 6; 10 ng/mL IFNγ, 18-24 hours
How it was run: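 Flow cytometry gave ICAM-1 (CD54) up-regulation as ICAM-APC geometric mean within the live-cell gate, alongside % viable cells. Human monocytic U937 cells received 3-fold serial compound dilutions for 30 min at 37 °C, followed by IFNγ stimulation lasting 18–24 h. Dose curves yielded EC50s.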

NS(=O)(=O)c1cccc(Nc2ncc(F)c(Nc3ccc(CNS(=O)(=O)C4CCCCC4)cc3)n2)c1 [Compound I-72, N2-(3-aminosulfonyl)phenyl-N4-(4-cyclohexylsulfonylaminomethyl)phenyl-5-fluoro-2,4-pyrimidinediamine]
IC50 [1]: 56.9 nM
IC50 [2]: 25.1 nM
IC50 [3]: 204 nM

Cc1ccc(Nc2ncc(F)c(Nc3ccc(CNS(=O)(=O)C4CCCCC4)cc3)n2)cc1S(N)(=O)=O [Compound I-73, N2-(3-aminosulfonyl-4-methyl)phenyl-N4-(4-cyclohexylsulfonylaminomethyl)phenyl-5-fluoro-2,4-pyrimidinediamine]
IC50 [1]: 89.9 nM
IC50 [2]: 71 nM
IC50 [3]: 312 nM

CCCN(Cc1ccc(Nc2nc(Nc3cccc(S(N)(=O)=O)c3)ncc2C)cc1)S(=O)(=O)C1CC1 [Compound I-80, N2-(3-aminosulfonyl)phenyl-N4-[4-(N-cyclopropylsulfonyl-N-propylamino)methyl]phenyl-5-methyl-2,4-pyrimidinediamine]
IC50 [1]: 37.1 nM
IC50 [2]: 46.3 nM
IC50 [3]: 143 nM

Cc1cnc(Nc2cc(S(N)(=O)=O)cc(S(N)(=O)=O)c2)nc1Nc1ccc(CNS(=O)(=O)C2CC2)cc1 [Compound I-84, N4-(4-cyclopropylsulfonylaminomethyl)phenyl-N2-(3,5-diaminosulfonyl)phenyl-5-methyl-2,4-pyrimidinediamine]
IC50 [1]: 355 nM
IC50 [2]: 237 nM
IC50 [3]: 928 nM

Cc1cnc(Nc2cccc(S(N)(=O)=O)c2)nc1Nc1ccc(CNS(=O)(=O)CC(F)(F)F)cc1 [Compound I-97, N2-(3-aminosulfonyl)phenyl-5-methyl-N4-(4-trifluoroethylsulfonylaminomethyl)phenyl-2,4-pyrimidinediamine]
IC50 [1]: 34.7 nM
IC50 [2]: 48.8 nM
IC50 [3]: 257 nM

Cc1ccc(Nc2ncc(Cl)c(Nc3ccc(CNS(=O)(=O)C4CC4)cc3)n2)cc1S(N)(=O)=O [Compound I-113, N2-(3-aminosulfonyl-4-methyl)phenyl-5-chloro-N4-(4-cyclopropylsulfonylaminomethyl)phenyl-2,4-pyrimidinediamine]
IC50 [1]: 18.6 nM
IC50 [2]: 17 nM
IC50 [3]: 47.1 nM

NS(=O)(=O)c1cccc(Nc2ncc(Cl)c(Nc3ccc(CNS(=O)(=O)C4CC4)cc3)n2)c1 [Compound I-114, N2-(3-aminosulfonyl)phenyl-5-chloro-N4-(4-cyclopropylsulfonylaminomethyl)phenyl-2,4-pyrimidinediamine]
IC50 [1]: 20.6 nM
IC50 [2]: 9.2 nM
IC50 [3]: 51.7 nM

NS(=O)(=O)c1ccc(Nc2ncc(Cl)c(Nc3ccc(CNS(=O)(=O)C4CC4)cc3)n2)cc1 [Compound I-115, N2-(4-aminosulfonyl)phenyl-5-chloro-N4-(4-cyclopropylsulfonylaminomethyl)phenyl-2,4-pyrimidinediamine]
IC50 [1]: 23.3 nM
IC50 [2]: 19.2 nM
IC50 [3]: 105 nM

CCC(=O)N(Cc1cccc(Nc2nc(Nc3cccc(S(N)(=O)=O)c3)ncc2C)c1)S(=O)(=O)C1CC1 [Compound I-116, N2-(3-aminosulfonyl)phenyl-N4-[3-(N-cyclopropylsulfonyl-N-propionyl)aminomethyl]phenyl-5-methyl-2,4-pyrimidinediamine]
IC50 [1]: 36.7 nM
IC50 [2]: 29.9 nM
IC50 [3]: 178 nM

Cc1ccc(Nc2ncc(C)c(Nc3ccc(CNS(=O)(=O)C(C)C)cc3)n2)cc1S(N)(=O)=O [Compound I-117, N2-(3-aminosulfonyl-4-methyl)phenyl-N4-(4-isopropylsulfonylaminomethyl)phenyl-5-methyl-2,4-pyrimidinediamine]
IC50 [1]: 38.8 nM
IC50 [2]: 17.9 nM
IC50 [3]: 60.1 nM

Cc1cnc(Nc2cccc(S(N)(=O)=O)c2)nc1Nc1ccc(CNS(=O)(=O)C(C)C)cc1 [Compound I-118, N2-(3-aminosulfonyl)phenyl-N4-(4-isopropylsulfonylaminomethyl)phenyl-5-methyl-2,4-pyrimidinediamine]
IC50 [1]: 39.8 nM
IC50 [2]: 15.8 nM
IC50 [3]: 218 nM

Cc1cnc(Nc2cccc(S(N)(=O)=O)c2)nc1Nc1ccc(CNS(=O)(=O)C2CC2)c(Cl)c1 [Compound I-119, N2-(3-aminosulfonyl)phenyl-N4-(3-chloro-4-cyclopropylsulfonylaminomethyl)phenyl-5-methyl-2,4-pyrimidinediamine]
IC50 [1]: 53.5 nM
IC50 [2]: 95.4 nM
IC50 [3]: 535 nM

Cc1cnc(Nc2cccc(S(N)(=O)=O)c2)nc1Nc1cccc(CN(C)S(=O)(=O)C2CC2)c1 [Compound I-120, N2-(3-aminosulfonyl)phenyl-N4-[3-(N-cyclopropylsulfonyl-N-methyl)aminomethyl]phenyl-5-methyl-2,4-pyrimidinediamine]
IC50 [1]: 67.1 nM
IC50 [2]: 47.3 nM
IC50 [3]: 98.4 nM

Cc1cnc(Nc2cccc(S(N)(=O)=O)c2)nc1Nc1ccc(CN(C)S(=O)(=O)C2CC2)cc1 [Compound I-121, N2-(3-aminosulfonyl)phenyl-N4-[4-(N-cyclopropylsulfonyl-N-methyl)aminomethyl]phenyl-5-methyl-2,4-pyrimidinediamine]
IC50 [1]: 73.6 nM
IC50 [2]: 46.5 nM
IC50 [3]: 231 nM

Cc1cnc(Nc2ccc(S(N)(=O)=O)cc2)nc1Nc1ccc(CNS(=O)(=O)C(C)C)cc1 [Compound I-123, N2-(4-aminosulfonyl)phenyl-N4-(4-isopropylsulfonylaminomethyl)phenyl-5-methyl-2,4-pyrimidinediamine]
IC50 [1]: 83.6 nM
IC50 [2]: 42.9 nM
IC50 [3]: 164 nM

Cc1cnc(Nc2ccc(S(N)(=O)=O)cc2)nc1Nc1cccc(CN(C)S(=O)(=O)C2CC2)c1 [Compound I-124, N2-(4-aminosulfonyl)phenyl-N4-[3-(N-cyclopropylsulfonyl-N-methyl)aminomethyl]phenyl-5-methyl-2,4-pyrimidinediamine]
IC50 [1]: 89.8 nM
IC50 [2]: 132 nM
IC50 [3]: 373 nM

Cc1ccc(Nc2ncc(C)c(Nc3ccc(CNS(=O)(=O)C4CC4)c(Cl)c3)n2)cc1S(N)(=O)=O [Compound I-125, N2-(3-aminosulfonyl-4-methyl)phenyl-N4-(3-chloro-4-cyclopropylsulfonylaminomethyl)phenyl-5-methyl-2,4-pyrimidinediamine]
IC50 [1]: 94.9 nM
IC50 [2]: 138 nM
IC50 [3]: 389 nM

Cc1ccc(Nc2ncc(C)c(Nc3ccc(CN(C)S(=O)(=O)C4CC4)cc3)n2)cc1S(N)(=O)=O [Compound I-126, N2-(3-aminosulfonyl-4-methyl)phenyl-N4-[4-(N-cyclopropylsulfonyl-N-methyl)aminomethyl]phenyl-5-methyl-2,4-pyrimidinediamine]
IC50 [1]: 104 nM
IC50 [2]: 74.2 nM
IC50 [3]: 224 nM

Cc1cnc(Nc2cccc(S(=O)(=O)NCc3ccccc3)c2)nc1Nc1ccc(CNS(=O)(=O)C2CC2)cc1 [Compound I-154, N2-(3-benzylaminosulfonyl)phenyl-N4-(4-cyclopropylsulfonylaminomethyl)phenyl-5-methyl-2,4-pyrimidinediamine]
IC50 [1]: 84.6 nM
IC50 [2]: 61.9 nM
IC50 [3]: 184 nM

CNS(=O)(=O)c1cccc(Nc2ncc(C)c(Nc3ccc(CNS(=O)(=O)C4CC4)cc3)n2)c1 [Compound I-161, N4-(4-cyclopropylsulfonylaminomethyl)phenyl-5-methyl-N2-(3-methylaminosulfonyl)phenyl-2,4-pyrimidinediamine]
IC50 [1]: 16.7 nM
IC50 [2]: 11.2 nM
IC50 [3]: 51 nM
